Test results published in ChEMBL document CHEMBL1152264, “Diazen-1-ium-1,2-diolated nitric oxide donor ester prodrugs of 5-(4-hydroxymethylphenyl)-1-(4-aminosulfonylphenyl)-3-trifluoromethyl-1H-pyrazole and its methanesulfonyl analog: synthesis, biological evaluation and nitric oxide release studies” (Bioorg Med Chem, 2008).
pIC50: −log10 of the molar value.

How the values were obtained:
Rattus norvegicus = assay: Antiinflammatory activity against po dosed carrageenan-induced rat foot paw edema after 3 hrs; assay type: functional
[1] = target: T1, Prostaglandin G/H synthase 1 (Ovis aries, UniProt P05979)
T1 sequence (P05979 whole entry): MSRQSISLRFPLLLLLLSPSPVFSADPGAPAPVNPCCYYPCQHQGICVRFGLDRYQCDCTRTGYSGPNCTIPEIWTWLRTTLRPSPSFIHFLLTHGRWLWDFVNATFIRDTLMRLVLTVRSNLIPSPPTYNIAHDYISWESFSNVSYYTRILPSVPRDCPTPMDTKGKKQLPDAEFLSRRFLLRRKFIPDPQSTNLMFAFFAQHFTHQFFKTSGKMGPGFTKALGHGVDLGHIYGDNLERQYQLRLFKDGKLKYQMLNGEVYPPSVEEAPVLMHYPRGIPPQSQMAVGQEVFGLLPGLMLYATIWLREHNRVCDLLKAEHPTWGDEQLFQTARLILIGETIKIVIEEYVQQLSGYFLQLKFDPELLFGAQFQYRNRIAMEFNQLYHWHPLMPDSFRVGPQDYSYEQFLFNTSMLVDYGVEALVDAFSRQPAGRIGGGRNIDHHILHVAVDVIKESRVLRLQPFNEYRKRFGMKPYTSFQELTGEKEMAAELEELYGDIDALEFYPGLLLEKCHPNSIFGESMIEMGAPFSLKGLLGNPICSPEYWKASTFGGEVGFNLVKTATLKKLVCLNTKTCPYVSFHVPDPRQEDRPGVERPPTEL
Description: Inhibition of ovine COX1 by enzyme immuno assay

[2] = Effect on nitric oxide release in phosphate buffer at pH 7.4 after 1.5 hrs; assay type: physicochemical; conditions: pH 7.4, 1.5 h
[3] = Effect on nitric oxide release in phosphate buffer at pH 7.4 after 1.5 hrs in presence of rat serum; assay type: ADME; conditions: pH 7.4, 1.5 h

## CS(=O)(=O)c1ccc(-n2nc(C(F)(F)F)cc2-c2ccc(CO)cc2)cc1
Rattus norvegicus
  ED50: 112 µmol/kg
[1]
  pIC50: 5.07

## CC(=O)OCO/N=[N+](\[O-])N1CCC[C@H]1C(=O)OCc1ccc(-c2cc(C(F)(F)F)nn2-c2ccc(S(C)(=O)=O)cc2)cc1
Rattus norvegicus
  ED50: 76.7 µmol/kg
[2]
  Activity: 6.1%
[3]
  Activity: 77%

## Cc1ccc(-c2cc(C(F)(F)F)nn2-c2ccc(S(N)(=O)=O)cc2)cc1 [CELECOXIB]
Rattus norvegicus
  ED50: 30.9 µmol/kg

## CC(=O)Oc1ccccc1C(=O)O [ASPIRIN]
Rattus norvegicus
  ED50: 710 µmol/kg

## CC(=O)OCO/N=[N+](\[O-])N1CCC[C@H]1C(=O)OCc1ccc(-c2cc(C(F)(F)F)nn2-c2ccc(S(N)(=O)=O)cc2)cc1
Rattus norvegicus
  ED50: 94.3 µmol/kg
[2]
  Activity: 8.2%
[3]
  Activity: 76%
[1]
  pIC50: < 4.00

## CC(C)Cc1ccc(C(C)C(=O)O)cc1 (stereo not drawn) [IBUPROFEN]
Rattus norvegicus
  ED50: 327 µmol/kg

## NS(=O)(=O)c1ccc(-n2nc(C(F)(F)F)cc2-c2ccc(CO)cc2)cc1 [PRIMARY ALCOHOL METABOLITE OF CELECOXIB]
Rattus norvegicus
  ED50: 77.1 µmol/kg
